Data as given in patent US12102631B2, “Quinolylnitrones for the treatment and prevention of a cerebral stroke or ischaemia” (ISQUAEMIA BIOTECH, S.L., priority 2018, dated 2024).

Tests used:
[1] = test system: primary neuronal cultures from rat cerebral cortex; experiment: Neuroprotection (MTT cell viability) in primary neuronal cultures exposed to oxygen-glucose deprivation (OGD); assay type: cell-based; conditions: 24 h recovery after 4 h OGD, R24 h = 0%, control = 100%
Protocol: Primary neuronal cultures. Primary neuronal cultures from rat cerebral cortex were prepared as previously described.^54 All procedures associated with animal experiments were approved by the Ethics Committee of the Hospital Ramón y Cajal, Madrid (Spain). Cell suspensions from cerebral cortex were prepared from 16- to 17-day-old Sprague-Dawley rat embryos. Living cells in cell suspension were counted by trypan blue exclusion method. Cells were seeded on plastic multidishes precoated with 0.05 mg/mL poly-D-lysine at a density of 2.5×10^5 cells/cm^2 and were kept at 37° C. in a 6.5% CO2 atmosphere in high glucose Dulbecco's medium supplemented with 15% heat-inactivated (56° C. for 30 min) foetal calf serum. After 24 h, cultured cells were […] to induce experimental ischemia.^23 Cultured cells were washed and placed in glucose-free Dulbecco's medium (bubbled with 95% N2/5% CO2 for 30 min), and maintained in a humidified hypoxia chamber equipped with an oxygen and carbon dioxide control unit (Biospherix) at 6.5% CO2 and <0.1% O2 in N2 at 37° C. Cells were exposed to OGD for a period of 4 h (OGD 4 h). At the end of the OGD period, culture medium was replaced with oxygenated serum-free medium, and cells were placed and maintained in the normoxic incubator for 24 h to recovery (R24 h). In the neuroprotection experiments, the compounds were added at the onset of recovery period. Control cultures in Dulbecco's medium containing glucose were kept in the normoxic incubator for the same period of time as the OGD, and then medium (Dulbecco's/Ham's F12, 1:1 [vol/vol], 5 mg/mL glucose, 2 mM L-glutamine, and 1 mM sodium pyruvate, and supplemented with 100 μg/mL transferrin, 100 μM putrescine, 20 nM progesterone, 30 nM sodium selenite and 5 μg/mL insulin). Here, 6-7 day old cultured neurons were used in the experiments, and contained 90% β-III-tubulin-positive mature neurons, as described previously.^55
Exposure of cell cultures to oxygen-glucose deprivation and treatments. Primary neuronal cultures were exposed to […]. Control experiments included the same amounts of vehicle (final concentration<0.5% ethanol). Nitrone 2 was used as reference compound for neuroprotection. The experimental procedures were blindly performed, assigning a random order to each assayed nitrone. Nitrones were analyzed independently four-eight times with different batch of cultures and each experiment was run in quadruplicate.
Cell viability assay. Cell viability was evaluated by quantification of living, metabolically active cells, as determined by a colorimetric assay using the photometric reduction of 3-(4,5-dimethylthiazol-2-yl)-2,5-diphenyl tetrazolium bromide (MTT) (Roche) to a blue formazan product. The assay of living, metabolically active cells was performed by incubating with 0.2 mg/mL MTT in the culture medium for 1.5 h in an incubator at 37° C. in a 6.5% CO2 atm. After the incubation period, cells were lysed with an equal volume of 10 mM HCl and 10% SDS overnight. Values were quantified by absorbance (test 595 nm, reference 690 nm). Decreased MTT activity denotes impairment of mitochondrial function and is considered to be an index of cell damage. Primary neuronal cultures were collected at times indicated for MTT determination.
Neuroprotection of compounds was evaluated by a cell viability assay. The neuroprotective effect of the compounds 5-32 was evaluated on primary neuronal cultures from cerebral cortex subjected to oxygen-glucose deprivation (OGD) to induce experimental ischemia. Afterwards, cultured neurons were placed and kept in normoxic and normoglycemic conditions to recovery. […]

[2] = Superoxide radical scavenging (hypoxanthine/xanthine oxidase system); assay type: biochemical; conditions: tested at 100 μM (0.1 mM)
From the text: 3.7. Superoxide radical scavenging activity. Superoxide anion radical (O2⋅−) is less toxic than hydroxyl radical, but still one of the most known harmful toxic ROS. In physiological conditions, superoxide dismutase catalyzes its conversion to H2O2, which is the precursor for the formation of hydroxyl radicals in the presence of iron ions.43 Superoxide anion radicals O2⋅− and H2O2 are ROS produced in vivo through a one-electron reduction process of O2. The evaluation of superoxide anion radical scavenging activity can be determined using assays involving non-enzymatic or enzymatic production of superoxide anions. In this assay, superoxide anion radicals were generated by a hypoxanthine and xanthine oxidase reaction system, and the O2⋅− scavenging activity (%) has been measured spectrophotometrically.

`Cc1ccc2nc(N(C)C)c(/C=[N+](\[O-])Cc3ccccc3)cc2c1` [Compound 16, (Z)—N-Benzyl-1-(2-(dimethylamino)-6-methylquinolin-3-yl)methanimine oxide] gave a viability at 1 µM ([1]; Rattus norvegicus, 1 μM) of 12.9 ± 0.34%, a viability at 10 µM ([1]; Rattus norvegicus, 10 μM) of 34.3 ± 0.59% and a viability at 100 µM ([1]; Rattus norvegicus, 100 μM) of less than 0%. The viability at 250 µM ([1]; Rattus norvegicus) was less than 0%.
`Cc1ccc2ncc(/C=[N+](\[O-])Cc3ccccc3)cc2c1` [Compound 12, (Z)—N-Benzyl-1-(6-methylquinolin-3-yl)methanimine oxide] gave a viability at 1 µM ([1]; Rattus norvegicus, 1 μM) of 37 ± 0.05%, a viability at 10 µM ([1]; Rattus norvegicus, 10 μM) of 37.7 ± 0.66% and a viability at 100 µM ([1]; Rattus norvegicus, 100 μM) of 34.4 ± 0.67%. For the same compound, the viability at 250 µM ([1]; Rattus norvegicus) was 34.11 ± 0.15%.
`COc1nc2ccc(C)cc2cc1/C=[N+](\[O-])Cc1ccccc1` [Compound 14, (Z)—N-Benzyl-1-(2-methoxy-6-methylquinolin-3-yl)methanimine oxide] gave a viability at 1 µM ([1]; Rattus norvegicus, 1 μM) of 17.6 ± 1.11%, a viability at 10 µM ([1]; Rattus norvegicus, 10 μM) of 23.7 ± 1.77% and a viability at 100 µM ([1]; Rattus norvegicus, 100 μM) of less than 0%.
In the case of `O=C(O)/C=C/c1ccc(O)c(O)c1` [Caffeic acid, caffeic acid, reference compound], the “O2*− (%)” value [2] is reported as 15%.
In the case of `COc1ccc2cc(/C=[N+](\[O-])Cc3ccccc3)c(Cl)nc2c1` [Compound 27, (Z)—N-Benzyl-1-(2-chloro-7-methoxyquinolin-3-yl)methanimine oxide], the viability at 1 µM ([1]; Rattus norvegicus, 1 μM) is reported as 26.6 ± 0.37%, the viability at 10 µM ([1]; Rattus norvegicus, 10 μM) is reported as 28 ± 1.15% and the viability at 100 µM ([1]; Rattus norvegicus, 100 μM) is reported as 19.4 ± 1.51%.
With `COc1nc2ccccc2cc1/C=[N+](\[O-])Cc1ccccc1` [Compound 21, (Z)—N-Benzyl-1-(2-methoxyquinolin-3-yl)methanimine oxide] the viability at 1 µM ([1]; Rattus norvegicus, 1 μM) was less than 0%, the viability at 10 µM ([1]; Rattus norvegicus, 10 μM) was 24.2 ± 0.36% and the viability at 100 µM ([1]; Rattus norvegicus, 100 μM) was less than 0%.
Work on `[O-]/[N+](=C\c1cc2cc(Cl)ccc2nc1Cl)Cc1ccccc1` [Compound 26, (Z)—N-Benzyl-1-(2,6-dichloroquinolin-3-yl)methanimine oxide] yielded a viability at 1 µM ([1]; Rattus norvegicus, 1 μM) of 41.72 ± 0.3%, a viability at 10 µM ([1]; Rattus norvegicus, 10 μM) of 37.7 ± 0.52% and a viability at 100 µM ([1]; Rattus norvegicus, 100 μM) of less than 0%. For the same compound, the viability at 250 µM ([1]; Rattus norvegicus) was 0.35 ± 0.02%.
With `Cc1ccc2nc(Cl)c(/C=[N+](\[O-])Cc3ccccc3)cc2c1` [Compound 4, (Z)—N-benzyl-1-(2-chloro-6-methylquinolin-3-yl)methanimine oxide, reference compound] the viability at 10 µM ([1]; Rattus norvegicus, 10 μM) was 55.4 ± 1.74% and the viability at 50 µM ([1]; Rattus norvegicus, 50 μM) was 56.8 ± 2.57%.
In the case of `Cc1ccc2nc(Cl)c(C=NO)cc2c1` [Compound 6], the “Neuroprotection (%)” value ([1]; 0.5 μM) is reported as 8.30 ± 0.62%, the “Neuroprotection (%)” value ([1]; 1 μM) is reported as 11.28 ± 1.32% and the “Neuroprotection (%)” value ([1]; 10 μM) is reported as less than 0%. For the same compound, the “Neuroprotection (%)” value ([1]; 100 μM) was less than 0%.
With `[O-]/[N+](=C\c1cc2cc(O)ccc2nc1Cl)Cc1ccccc1` [Compound 25, (Z)—N-Benzyl-1-(2-chloro-6-hydroxyquinolin-3-yl)methanimine oxide] the viability at 1 µM ([1]; Rattus norvegicus, 1 μM) was 25.15 ± 0.14%, the viability at 10 µM ([1]; Rattus norvegicus, 10 μM) was less than 0% and the viability at 100 µM ([1]; Rattus norvegicus, 100 μM) was less than 0%. For the same compound, the viability at 250 µM ([1]; Rattus norvegicus) was less than 0%.
In the case of `COc1ccc(OC)c2nc(Cl)c(/C=[N+](\[O-])Cc3ccccc3)cc12` [Compound 28, (Z)—N-Benzyl-1-(2-chloro-5,8-dimethoxyquinolin-3-yl)methanimine oxide], the viability at 1 µM ([1]; Rattus norvegicus, 1 μM) is reported as 35.1 ± 0.84%, the viability at 10 µM ([1]; Rattus norvegicus, 10 μM) is reported as 38.6 ± 0.55% and the viability at 100 µM ([1]; Rattus norvegicus, 100 μM) is reported as 44.27 ± 0.39%.
`[O-]/[N+](=C\c1cc2ccccc2nc1Cl)Cc1ccccc1` [Compound 20, (Z)—N-Benzyl-1-(2-chloroquinolin-3-yl)methanimine oxide] gave a viability at 1 µM ([1]; Rattus norvegicus, 1 μM) of 32.8 ± 2.72%, a viability at 10 µM ([1]; Rattus norvegicus, 10 μM) of less than 0% and a viability at 100 µM ([1]; Rattus norvegicus, 100 μM) of less than 0%.
Work on `Cc1ccc2[nH]c(=O)c(/C=[N+](\[O-])C(C)(C)C)cc2c1` [Compound 17, (Z)—N-tert-Butyl-1-(6-methyl-2-oxo-1,2-dihydroquinolin-3-yl)methanimine oxide] yielded a viability at 10 µM ([1]; Rattus norvegicus, 10 μM) of 20.2 ± 1.1%, a viability at 100 µM ([1]; Rattus norvegicus, 100 μM) of 17.6 ± 1.35% and a viability at 250 µM ([1]; Rattus norvegicus) of 10.9 ± 0.88%.
With `Cc1ccc2[nH]c(=O)c(/C=[N+](\[O-])Cc3ccccc3)cc2c1` [Compound 13, (Z)—N-Benzyl-1-(6-methyl-2-oxo-1,2-dihydroquinolin-3-yl)methanimine oxide] the viability at 10 µM ([1]; Rattus norvegicus, 10 μM) was 35.9 ± 1.46%, the viability at 100 µM ([1]; Rattus norvegicus, 100 μM) was 42 ± 1.86% and the viability at 250 µM ([1]; Rattus norvegicus) was 29.8 ± 1.25%.
`Cc1ccc2nc(Cl)c(/C=[N+](\[O-])c3ccccc3)cc2c1` [Compound 11, (Z)-1-(2-Chloro-6-methylquinolin-3-yl)-N-phenylmethanimine oxide] gave a viability at 1 µM ([1]; Rattus norvegicus, 1 μM) of 21.1 ± 0.31%, a viability at 10 µM ([1]; Rattus norvegicus, 10 μM) of 36.5 ± 1% and a viability at 100 µM ([1]; Rattus norvegicus, 100 μM) of less than 0%. It also gave a viability at 250 µM ([1]; Rattus norvegicus) of 1 ± 0.07%.
`CNc1nc2ccc(C)cc2cc1/C=[N+](\[O-])Cc1ccccc1` [Compound 15, (Z)—N-Benzyl-1-(6-methyl-2-(methylamino)quinolin-3-yl)methanimine oxide] gave a viability at 1 µM ([1]; Rattus norvegicus, 1 μM) of 8.5 ± 0.18%, a viability at 5 µM ([1]; Rattus norvegicus, 5 μM) of 1.57 ± 0.03% and a viability at 10 µM ([1]; Rattus norvegicus, 10 μM) of less than 0%.
Compound `CC(C)(C)/[N+]([O-])=C/c1cc2ccccc2n2nnnc12` [Compound 31, (Z)—N-tert-Butyl-1-(tetrazolo[1,5-a]quinolin-4-yl)methanimine oxide] has a viability at 1 µM ([1]; Rattus norvegicus, 1 μM) of 7.64 ± 0.14%, a viability at 10 µM ([1]; Rattus norvegicus, 10 μM) of 9.84 ± 0.65% and a viability at 100 µM ([1]; Rattus norvegicus, 100 μM) of 5.83 ± 0.56%.
